Laboratory results as given in ChEMBL document CHEMBL1131293, “N-[omega-(Tetralin-1-yl)alkyl] derivatives of 3,3-dimethylpiperidine are highly potent and selective sigma1 or sigma2 ligands” (J Med Chem, 1998).

Assays:
[1] = target: Sigma non-opioid intracellular receptor 1 (Rattus norvegicus) (UniProt Q9R0C9); assay: IC50 ratio; sigma 1 to sigma 2; details: Cavia porcellus
[2] = target: Sigma 2 receptor; assay: Evaluated for the binding affinity towards sigma 2 receptor by displacing the radioligand [3H]DTG in guinea-pig brain cortex.; set-up: species or system Cavia porcellus
[3] = target: Sigma non-opioid intracellular receptor 1 (Rattus norvegicus, UniProt Q9R0C9); assay: Evaluated for the binding affinity towards sigma 1 receptor by displacing the radioligand [3H]-SKF- 10047 in whole rat brain membrane.; format: cell membranes
Chain of Sigma non-opioid intracellular receptor 1 (Q9R0C9 whole entry): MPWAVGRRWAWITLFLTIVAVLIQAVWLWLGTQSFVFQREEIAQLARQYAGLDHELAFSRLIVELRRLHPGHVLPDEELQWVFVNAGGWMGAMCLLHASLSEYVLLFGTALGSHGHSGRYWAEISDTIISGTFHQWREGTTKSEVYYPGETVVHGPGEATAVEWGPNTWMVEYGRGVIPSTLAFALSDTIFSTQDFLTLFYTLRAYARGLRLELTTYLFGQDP

[4] = target: Sigma non-opioid intracellular receptor 1 (Rattus norvegicus) (UniProt Q9R0C9); assay: IC50 ratio; sigma 2 to sigma 1; details: Cavia porcellus

Chain of Sigma non-opioid intracellular receptor 1 (Rattus norvegicus) (Q9R0C9 whole entry): as above

| SMILES | Ratio [1] | IC50 [2] | IC50 [3] | Ratio [4] |
| --- | --- | --- | --- | --- |
| COc1ccc2c(c1)CCCC2CCCCN1CCCC(C)(C)C1 (centres undefined) | > 100000 | 0.016 nM | 2150 nM |  |
| COc1cccc2c1CCCC2CCCN1CCCC(C)(C)C1 (racemic) [listing 1 of 2 here] |  | 138 nM | 0.48 nM |  |
| CC1(C)CCCN(CCCCC2=CCCc3ccccc32)C1 | 8590 | 1.1 nM | 9450 nM |  |
| COc1cccc2c1CCCC2CCCN1CCCC(C)(C)C1 (single isomer, unassigned; (+)) [listing 1 of 2 here] |  |  |  | 1340 |
| COc1cccc2c1CCC2CCCCN1CCCC(C)(C)C1 (centres undefined) | 2 | 4.6 nM | 9.3 nM | 0.5 |
| CC1(C)CCCN(CCCC2=CCc3ccccc32)C1 | 1 | 1.09 nM | 0.99 nM | 1 |
| COc1cccc2c1CCCC2CCCCN1CCCC(C)(C)C1 (centres undefined) | 8 | 129 nM | 978 nM |  |
| COc1cccc2c1CCCC2CCCN1CCCC(C)(C)C1 (stereo in doubt; (-)-22) [listing 1 of 2 here] |  |  |  | 131 |
| COc1ccc2c(c1)CCCC2CCCCCN1CCCC(C)(C)C1 (centres undefined) | 21 | 0.03 nM | 0.62 nM |  |
| CC1(C)CCCN(CCCC2CCCc3c(O)cccc32)C1 (centres undefined) |  | 100 nM | 41 nM | 2 |
| COc1ccc2c(c1)CCC2CCCN1CCCC(C)(C)C1 (centres undefined) | 4610 | 1.01 nM | 4660 nM |  |
| COc1ccc2c(c1)C(CCCN1CCCC(C)(C)C1)CCC2 (centres undefined) |  | 109 nM | 22 nM | 5 |
| COc1cccc2c1CCCC2CCCN1CCCC(C)(C)C1 (racemic) [listing 2 of 2 here] |  |  |  | 287 |
| COc1ccc2c(c1)C(CCCCN1CCCC(C)(C)C1)CCC2 (centres undefined) | 58 | 0.44 nM | 25.6 nM |  |
| COc1cccc2c1CCCC2CCCN1CCCC(C)(C)C1 (stereo in doubt; (-)-22) [listing 2 of 2 here] |  | 111 nM | 0.85 nM |  |
| CC1(C)CCCN(CCCCCc2ccccc2)C1 | 583 | 10 nM | 5830 nM |  |
| CC1(C)CCCN(CCCC2CCCc3ccccc32)C1 (centres undefined) | 2 | 135 nM | 252 nM | 0.5 |
| CC1(C)CCCN(CCCCCC2CCCc3ccccc32)C1 (centres undefined) | > 100000 | 0.008 nM | 1520 nM |  |
| CC1(C)CCCN(CCC2CCCc3ccccc32)C1 (centres undefined) | > 9090 | 1.1 nM | > 10000 nM |  |
| COc1ccc2c(c1)CCCC2CCCN1CCCC(C)(C)C1 (centres undefined) | > 114 | 88 nM | > 10000 nM |  |
| CC1(C)CCCN(CCCCC2CCCc3ccccc32)C1 (centres undefined) |  | 5.5 nM | 0.69 nM | 8 |
| COc1cccc2c1CCCC2CCCN1CCCC(C)(C)C1 (single isomer, unassigned; (+)) [listing 2 of 2 here] |  | 119 nM | 0.089 nM |  |
| CC1(C)CCCN(CCCC2CCc3ccccc32)C1 (centres undefined) | 1.5 | 4.5 nM | 6.9 nM | 0.6 |
